This note sets out measurements from patent US11795171B2, “Pyrrolotriazinones and imidazotriazinones as ubiquitin-specific protease 7 inhibitors” (Valo Health, Inc., priority 2014, dated 2023).

Structures are written as SMILES.

The test deals with USP7 (Homo sapiens (Human), UniProt Q93009). Description: USP7 Assay B (Ubitquin-Rhodamine110 Assay). It is filed as biochemical. The following applies: Ub-Rh110 substrate 25 nM.
Sequence of USP7 (Q93009 208-1102): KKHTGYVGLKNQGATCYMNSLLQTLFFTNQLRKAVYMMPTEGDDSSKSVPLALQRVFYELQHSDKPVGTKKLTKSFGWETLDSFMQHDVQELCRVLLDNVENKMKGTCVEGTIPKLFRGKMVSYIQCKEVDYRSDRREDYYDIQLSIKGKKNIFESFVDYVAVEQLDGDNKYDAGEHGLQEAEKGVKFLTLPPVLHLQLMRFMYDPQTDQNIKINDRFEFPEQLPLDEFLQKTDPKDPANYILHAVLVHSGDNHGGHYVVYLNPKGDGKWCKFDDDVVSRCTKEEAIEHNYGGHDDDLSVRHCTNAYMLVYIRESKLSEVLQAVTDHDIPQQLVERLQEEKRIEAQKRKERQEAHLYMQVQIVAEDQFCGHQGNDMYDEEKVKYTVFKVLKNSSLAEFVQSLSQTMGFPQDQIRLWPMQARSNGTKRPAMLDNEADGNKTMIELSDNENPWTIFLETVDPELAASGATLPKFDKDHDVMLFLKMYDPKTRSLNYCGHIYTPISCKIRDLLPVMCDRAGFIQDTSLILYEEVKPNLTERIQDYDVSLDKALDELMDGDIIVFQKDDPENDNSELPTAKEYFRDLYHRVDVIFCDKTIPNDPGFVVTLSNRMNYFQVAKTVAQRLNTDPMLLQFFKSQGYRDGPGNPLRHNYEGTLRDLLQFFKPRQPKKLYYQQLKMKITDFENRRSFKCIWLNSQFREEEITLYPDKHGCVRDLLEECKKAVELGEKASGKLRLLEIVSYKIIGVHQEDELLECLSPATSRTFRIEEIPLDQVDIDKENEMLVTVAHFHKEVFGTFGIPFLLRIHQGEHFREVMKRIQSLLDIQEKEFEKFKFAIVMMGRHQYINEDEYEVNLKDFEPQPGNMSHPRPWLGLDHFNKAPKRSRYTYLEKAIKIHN
By IC50 is commonly meant the concentration needed to halve the response being measured. The low end stands for greater potency, the high end for weaker potency. `O=C(NC1CCCC1)c1cccc(-c2cccc(C(=O)N3CCC(O)(Cn4cnn5cccc5c4=O)CC3)c2)c1` [Compound I-26, N-cyclopentyl-3′-(4-hydroxy-4-((4-oxopyrrolo[2,1-f][1,2,4]triazin-3(4H)-yl)methyl)piperidine-1-carbonyl)-[1,1′-biphenyl]-3-carboxamide] displayed an IC50 greater than 10 µM. Regarding `CC(=O)Nc1cc2c(=O)n(CC3(O)CCN(C(=O)C[C@@H](C)c4ccccc4)CC3)cnn2c1` [Compound I-81, (R)-N-(3-((4-hydroxy-1-(3-phenylbutanoyl)piperidin-4-yl)methyl)-4-oxo-3,4-dihydropyrrolo[2,1-f][1,2,4]triazin-6-yl)acetamide], the concentration for half-maximal inhibition (IC50) lay within 0.2 to 1 µM. For `O=C(c1ccc(-c2ccccc2)cc1)N1CCC(O)(Cn2cnn3cccc3c2=O)CC1` [Compound I-36, 3-((1-([1,1′-biphenyl]-4-carbonyl)-4-hydroxypiperidin-4-yl)methyl)pyrrolo[2,1-f][1,2,4]triazin-4(3H)-one] the value was greater than 10 µM; for `O=C(c1ccc(-c2ccc(C(=O)N3CCC(O)(Cn4cnn5cccc5c4=O)CC3)cc2)cc1)N1CCCC1` [Compound I-39, 3-((4-hydroxy-1-(4′-(pyrrolidine-1-carbonyl)-[1,1′-biphenyl]-4-carbonyl)piperidin-4-yl)methyl)pyrrolo[2,1-f][1,2,4]triazin-4(3H)-one], 1 to 10 µM.

Compound `O=C(c1ccc(-c2ccccc2)cc1Cl)N1CCC(O)(Cn2cnn3cccc3c2=O)CC1` [Compound I-50, 3-((1-(3-chloro-[1,1′-biphenyl]-4-carbonyl)-4-hydroxypiperidin-4-yl)methyl)pyrrolo[2,1-f][1,2,4]triazin-4(3H)-one] had an IC50 greater than 10 µM. Then `NC(=O)c1ccc(-c2cccc(C(=O)N3CCC(O)(Cn4cnn5cccc5c4=O)CC3)c2)cc1` [Compound I-16, 3′-(4-hydroxy-4-((4-oxopyrrolo[2,1-f][1,2,4]triazin-3(4H)-yl)methyl)piperidine-1-carbonyl)-[1,1′-biphenyl]-4-carboxamide], with 1 to 10 µM.

Compound `O=C(Cc1c(Cl)cccc1Cl)Nc1cc2c(=O)n(CC3(O)CCN(C(=O)C4CC4)CC3)cnn2c1` [Compound I-103, N-(3-((1-(cyclopropanecarbonyl)-4-hydroxypiperidin-4-yl)methyl)-4-oxo-3,4-dihydropyrrolo[2,1-f][1,2,4]triazin-6-yl)-2-(2,6-dichlorophenyl)acetamide] gave an IC50 greater than 10 µM. Then `O=C(COc1ccc(Cl)c(Cl)c1)Nc1cc2c(=O)n(CC3(O)CCN(C(=O)C4CC4)CC3)cnn2c1` [Compound I-105, N-(3-((1-(cyclopropanecarbonyl)-4-hydroxypiperidin-4-yl)methyl)-4-oxo-3,4-dihydropyrrolo[2,1-f][1,2,4]triazin-6-yl)-2-(3,4-dichlorophenoxy)acetamide], with greater than 10 µM; and `O=C(Nc1cc2c(=O)n(CC3(O)CCN(C(=O)C4CC4)CC3)cnn2c1)c1ccc(Cl)cc1Cl` [Compound I-111, 2,4-dichloro-N-(3-((1-(cyclopropanecarbonyl)-4-hydroxypiperidin-4-yl)methyl)-4-oxo-3,4-dihydropyrrolo[2,1-f][1,2,4]triazin-6-yl)benzamide], with greater than 10 µM; and `COc1ccc(OC)c(-c2ccc(C(=O)N3CCC(O)(Cn4cnn5cccc5c4=O)CC3)cc2)c1` [Compound I-40, 3-((1-(2′,5′-dimethoxy-[1,1′-biphenyl]-4-carbonyl)-4-hydroxypiperidin-4-yl)methyl)pyrrolo[2,1-f][1,2,4]triazin-4(3H)-one], with greater than 10 µM.

With `O=C(c1ccc(-c2cnc3ccccc3c2)cc1)N1CCC(O)(Cn2cnn3cccc3c2=O)CC1` [Compound I-42, 3-((4-hydroxy-1-(4-(quinolin-3-yl)benzoyl)piperidin-4-yl)methyl)pyrrolo[2,1-f][1,2,4]triazin-4(3H)-one], the IC50 lay in the range of 1 to 10 µM. Then `O=C(Nc1ccc(F)cc1)Nc1cc2c(=O)n(CC3(O)CCN(C(=O)C4CC4)CC3)cnn2c1` [Compound I-88, 1-(3-((1-(cyclopropanecarbonyl)-4-hydroxypiperidin-4-yl)methyl)-4-oxo-3,4-dihydropyrrolo[2,1-f][1,2,4]triazin-6-yl)-3-(4-fluorophenyl)urea], with greater than 10 µM; and `O=C(c1ccccc1-c1ccccc1)N1CCC(O)(Cn2cnn3cccc3c2=O)CC1` [Compound I-2, 3-((1-([1,1′-biphenyl]-2-carbonyl)-4-hydroxypiperidin-4-yl)methyl)pyrrolo[2,1-f][1,2,4]triazin-4(3H)-one], with greater than 10 µM. Then `O=C(Nc1cc2c(=O)n(CC3(O)CCN(C(=O)C4CC4)CC3)cnn2c1)c1ccccc1OC(F)(F)F` [Compound I-110, N-(3-((1-(cyclopropanecarbonyl)-4-hydroxypiperidin-4-yl)methyl)-4-oxo-3,4-dihydropyrrolo[2,1-f][1,2,4]triazin-6-yl)-2-(trifluoromethoxy)benzamide], with greater than 10 µM; and `Cc1ccc(C)c(C(=O)Nc2cc3c(=O)n(CC4(O)CCN(C(=O)C5CC5)CC4)cnn3c2)c1` [Compound I-109, N-(3-((1-(cyclopropanecarbonyl)-4-hydroxypiperidin-4-yl)methyl)-4-oxo-3,4-dihydropyrrolo[2,1-f][1,2,4]triazin-6-yl)-2,5-dimethylbenzamide], with greater than 10 µM. For `Cn1cnc2cc(-c3ccc(C(=O)N4CCC(O)(Cn5cnn6cccc6c5=O)CC4)cc3)ccc21` [Compound I-46, 3-((4-hydroxy-1-(4-(1-methyl-1H-benzo[d]imidazol-5-yl)benzoyl)piperidin-4-yl)methyl)pyrrolo[2,1-f][1,2,4]triazin-4(3H)-one] the value was greater than 10 µM. On to `Cc1ccc(-c2cccc(C(=O)N3CCC(O)(Cn4cnn5cccc5c4=O)CC3)c2)cc1C` [Compound I-17, 3-((1-(3′,4′-dimethyl-[1,1′-biphenyl]-3-carbonyl)-4-hydroxypiperidin-4-yl)methyl)pyrrolo[2,1-f][1,2,4]triazin-4(3H)-one], for which the IC50 is greater than 10 µM. Then `N#Cc1ccc(N2CCN(C(=O)N3CCC(O)(Cn4cnn5cccc5c4=O)CC3)CC2)cc1` [Compound I-73, 4-(4-(4-hydroxy-4-((4-oxopyrrolo[2,1-f][1,2,4]triazin-3(4H)-yl)methyl)piperidine-1-carbonyl)piperazin-1-yl)benzonitrile], with greater than 10 µM; and `CN(C)C(=O)c1ccc(-c2ccc(C(=O)N3CCC(O)(Cn4cnn5cccc5c4=O)CC3)c(Cl)c2)cc1` [Compound I-78, 3′-chloro-4′-(4-hydroxy-4-((4-oxopyrrolo[2,1-f][1,2,4]triazin-3(4H)-yl)methyl)piperidine-1-carbonyl)-N,N-dimethyl-[1,1′-biphenyl]-4-carboxamide], with greater than 10 µM. For `CC(CC(=O)N1CCC(O)(Cn2cnn3cccc3c2=O)CC1)c1ccccc1` (stereo not drawn) [Compound I-1, 3-((4-hydroxy-1-(3-phenylbutanoyl)piperidin-4-yl)methyl)pyrrolo[2,1-f][1,2,4]triazin-4(3H)-one] the value was 0.2 to 1 µM.

For the compound `O=C(c1cnc(-c2ccccc2)o1)N1CCC(O)(Cn2cnn3cccc3c2=O)CC1` [Compound I-32, 3-((4-hydroxy-1-(2-phenyloxazole-5-carbonyl)piperidin-4-yl)methyl)pyrrolo[2,1-f][1,2,4]triazin-4(3H)-one], the IC50 is greater than 10 µM.

`Cc1cc(C(F)(F)F)nn1Cc1ccc(C(=O)N2CCC(O)(Cn3cnn4cccc4c3=O)CC2)cc1` [Compound I-67, 3-((4-hydroxy-1-(4-((5-methyl-3-(trifluoromethyl)-1H-pyrazol-1-yl)methyl)benzoyl)piperidin-4-yl)methyl)pyrrolo[2,1-f][1,2,4]triazin-4(3H)-one] showed an IC50 of 1 to 10 µM. Then `Cc1ccc(C(=O)Nc2cc3c(=O)n(CC4(O)CCN(C(=O)C5CC5)CC4)cnn3c2)cc1C` [Compound I-107, N-(3-((1-(cyclopropanecarbonyl)-4-hydroxypiperidin-4-yl)methyl)-4-oxo-3,4-dihydropyrrolo[2,1-f][1,2,4]triazin-6-yl)-3,4-dimethylbenzamide], with 1 to 10 µM; and `O=C(c1ccc(-c2ccc3ncccc3c2)cc1)N1CCC(O)(Cn2cnn3cccc3c2=O)CC1` [Compound I-43, 3-((4-hydroxy-1-(4-(quinolin-6-yl)benzoyl)piperidin-4-yl)methyl)pyrrolo[2,1-f][1,2,4]triazin-4(3H)-one], with 1 to 10 µM.

As for `O=C(c1ccc(-c2ccc(C(=O)N3CCC(O)(Cn4cnn5cccc5c4=O)CC3)cc2)cc1)N1CCCCC1` [Compound I-52, 3-((4-hydroxy-1-(4′-(piperidine-1-carbonyl)-[1,1′-biphenyl]-4-carbonyl)piperidin-4-yl)methyl)pyrrolo[2,1-f][1,2,4]triazin-4(3H)-one], the IC50 is greater than 10 µM. For `O=C(c1cccc(-c2ccc(C(F)(F)F)cc2)c1)N1CCC(O)(Cn2cnn3cccc3c2=O)CC1` [Compound I-15, 3-((4-hydroxy-1-(4′-(trifluoromethyl)-[1,1′-biphenyl]-3-carbonyl)piperidin-4-yl)methyl)pyrrolo[2,1-f][1,2,4]triazin-4(3H)-one] the value was greater than 10 µM; for `O=C(c1ccccc1-c1cccc(F)c1)N1CCC(O)(Cn2cnn3cccc3c2=O)CC1` [Compound I-4, 3-((1-(3′-fluoro-[1,1′-biphenyl]-2-carbonyl)-4-hydroxypiperidin-4-yl)methyl)pyrrolo[2,1-f][1,2,4]triazin-4(3H)-one], greater than 10 µM; for `CC(C)(C)C(Cc1ccccc1)C(=O)N1CCC(O)(Cn2cnn3cccc3c2=O)CC1` (stereo not drawn) [Compound I-53, 3-((1-(2-benzyl-3,3-dimethylbutanoyl)-4-hydroxypiperidin-4-yl)methyl)pyrrolo[2,1-f][1,2,4]triazin-4(3H)-one], 1 to 10 µM.

Consider `O=C(c1cccc(-c2cccc(Cl)c2)c1)N1CCC(O)(Cn2cnn3cccc3c2=O)CC1` [Compound I-13, 3-((1-(3′-chloro-[1,1′-biphenyl]-3-carbonyl)-4-hydroxypiperidin-4-yl)methyl)pyrrolo[2,1-f][1,2,4]triazin-4(3H)-one], for which the IC50 was 1 to 10 µM. For `O=C(c1ccccc1-c1ccsc1)N1CCC(O)(Cn2cnn3cccc3c2=O)CC1` [Compound I-3, 3-((4-hydroxy-1-(2-(thiophen-3-yl)benzoyl)piperidin-4-yl)methyl)pyrrolo[2,1-f][1,2,4]triazin-4(3H)-one] the value was greater than 10 µM.
